Reference: patent US9040500B2, “Method for treating hematopoietic neoplasms” (priority 2007, dated 2015)

Experiments:
subcutaneous HL60 tumors [1] = test: Subcutaneous in vivo leukemia model (Example 1); set-up: species or system athymic nu/nu mice; details: for tumor volume / tumor growth versus control (PBS): CA1dP or CA4P 75 mg/kg/inj, Ara-C 20 mg/kg/inj, HL60 s.c. in nu/nu mice
Protocol: (§1) HL60 (1×10^7 cells in 0.1 ml) were injected subcutaneously into the dorsa of 4-6 week old athymic nu/nu mice (Southern Research Institute). When palpable tumors were evident (average tumor volume 100 mm^3; i.e. approximately 12 days after inoculation), 6 experimental groups of mice were randomized, each with 10 animals. Treatment was initiated according to the following regimens:
Tumor volume was measured three times a week until the endpoint was reached (tumor volume >3000 mm^3), or for 90 days post-treatment.

[2] = system: intracellular reactive oxygen species (ROS); test: Intracellular reactive oxygen species in leukemic cells; assay type: cell-based
leukemic cells = test: Leukemic cell proliferation and cell death in vitro; assay type: cell-based; details: low and non-toxic doses
[3] = system: subcutaneous solid tumors; details: concentrations well below the maximum tolerated dose; cited from earlier work
subcutaneous HL60 tumors [4] = test: Dose response activity in subcutaneous HL60 model (Example 2); assay type: in vivo, athymic nu/nu mice
Protocol: as §1, with “inoculation), ten” for “inoculation), 6”
Tumor volume was measured three times per week.

tubulin = details: cited from earlier work
[5] = CA1dP 75 mg/kg/inj with addition of Ara-C 20 mg/kg/inj
[6] = subcutaneous mouse models of AML, single agent (introduction summary)
[7] = CA1dP combined with araC 20 mg/kg/inj

Nc1ccn([C@@H]2O[C@H](CO)[C@@H](O)[C@@H]2O)c(=O)n1 [Ara-C, cytosine arabinoside, reference compound]
tumor volume / tumor growth versus control (PBS) (subcutaneous HL60 tumors [1]; single agent): little improvement

COc1cc(/C=C\c2ccc(OC)c(OP(=O)(O)O)c2OP(=O)(O)O)cc(OC)c1OC [CA1dP, combretastatin A-1 diphosphate]
complete regressions out of ten treated mice (subcutaneous HL60 tumors [1]; [5]): six | tumor volume versus CA1dP alone (subcutaneous HL60 tumors [1]; [5]): further decreased tumor volumes | tumor load with co-administered chemotherapeutic agent (subcutaneous HL60 tumors [1]; co-administration of AraC (introduction summary)): decreases tumor load even further | complete tumor regressions in a population of ten treated mice (subcutaneous HL60 tumors [1]; single agent, 75 mg/kg/inj Q7D x 2): five | tumor volume / tumor growth versus control (PBS) (subcutaneous HL60 tumors [1]; single agent): substantial decreases in tumor volume | survival of treated mice (subcutaneous HL60 tumors [1]; [6]): significantly prolonged survival | tumor load of treated mice (subcutaneous HL60 tumors [1]; [6]): significantly decreased tumor load | intracellular reactive oxygen species (ROS) [2]: rapidly increases intracellular reactive oxygen species | leukemic cell proliferation in vitro (leukemic cells): inhibit leukemic cell proliferation in vitro | mitotic arrest and cell death of leukemic cells (leukemic cells): induce mitotic arrest and cell death | microtubule depolymerization and vascular shutdown causing tumor necrosis [3]: induces rapid microtubule depolymerization and vascular shutdown | decrease in tumor volume relative to dose (subcutaneous HL60 tumors [4]; CA1dP 2.5, 10, 25, 75 mg/kg/inj, day 3 and 10): clear dose response relationship | duration of tumor growth inhibition, combination versus CA1dP alone (subcutaneous HL60 tumors [4]; [7]): longer growth inhibition | number of complete responses, combination versus CA1dP alone (subcutaneous HL60 tumors [4]; [7]): not significantly altered | anti-tumor activity (subcutaneous HL60 tumors [4]; doses of CA1dP above 2.5 mg/kg): significant anti-tumor activity

COc1ccc(/C=C\c2cc(OC)c(OC)c(OC)c2)cc1OP(=O)(O)O [CA4P, combretastatin A-4 phosphate, reference compound]
life span versus controls (subcutaneous HL60 tumors [1]; single agent, 75 mg/kg/inj): extended life span | tumor volume / tumor growth versus control (PBS) (subcutaneous HL60 tumors [1]; single agent): delayed tumor growth

COc1ccc(/C=C\c2cc(OC)c(OC)c(OC)c2)c(O)c1O [Combretastatin A-1]
affinity for tubulin at the colchicine site, relative to colchicine (tubulin): higher affinity
